Data taken from ChEMBL document CHEMBL4270488, “Antibacterial Compounds from Marine Bacteria, 2010-2015” (J Nat Prod, 2017).
pIC50: −log10 of the molar value. Converted amounts (≈) assume the structure as drawn. *1 amine or outer side, *2 acyl side, *3 side chain or, on linkers, in order; H or OH if unused. Where a SMILES comes first, the peptide text is derived from it. Bridges are numbered along the chain shown (N, C = ends). Roman numbers before positions name the chains, in order. [ ]: non-standard residue; d: D form. Actinocin(1to9) = Cc1c2oc3c(C)ccc(C(=O)[*:2])c3nc-2c(C(=O)[*:1])c(N)c1=O; Pro(4-oxo) = O=C1CN[C@H](C(=O)O)C1; NMeV = CN[C@H](C(=O)O)C(C)C; Sar = CNCC(=O)O

What was measured:
[1] = Inhibition of Staphylococcus aureus RNA polymerase
[2] = Inhibition of Escherichia coli RNA polymerase
Clostridioides difficile = assay: Antibacterial activity against Clostridioides difficile BI/NAP1/O27 by agar dilution method; type: functional
Enterococcus [3] = assay: Antibacterial activity against Enterococcus VRE-CUS by CLSI method; type: functional
Moraxella catarrhalis = assay: Antibacterial activity against Moraxella catarrhalis ATCC 25238 by CLSI method; type: functional
Enterococcus [4] = assay: Antibacterial activity against Enterococcus VRE-WMC by CLSI method; type: functional
Pseudomonas aeruginosa [5] = assay: Antibacterial activity against Pseudomonas aeruginosa ATCC 27853 by CLSI method; type: functional
Escherichia coli [6] = assay: Antibacterial activity against Escherichia coli by CLSI method; type: functional
Staphylococcus aureus [7] = assay: Antibacterial activity against methicillin-resistant Staphylococcus aureus by CLSI method; type: functional
[8] = Antibacterial activity Bacillus pumilus against by broth dilution assay; type: functional
Pseudomonas aeruginosa [9] = assay: Antibacterial activity against Pseudomonas aeruginosa by broth dilution assay; type: functional
[10] = test system: Staphylococcus haemolyticus; assay: Antibacterial activity against Staphylococcus haemolyticus UST950701-004 measured after overnight incubation by microdilution method; type: functional
Staphylococcus aureus [11] = assay: Antibacterial activity against methicillin-resistant Staphylococcus aureus ATCC 43300 measured after overnight incubation by microdilution method; type: functional
Bacillus subtilis [12] = assay: Antibacterial activity against Bacillus subtilis 769 measured after overnight incubation by microdilution method; type: functional
Staphylococcus aureus [13] = assay: Antibacterial activity against Staphylococcus aureus UST950701-005 measured after overnight incubation by microdilution method; type: functional
[14] = test system: Mycobacterium tuberculosis; assay: Antibacterial activity against Mycobacterium tuberculosis H37Rv ATCC 27294 incubated for 10 days by GFP based fluorescence assay; type: functional; details: H37Rv ATCC 27294, 240 h
[15] = test system: Yersinia pseudotuberculosis; assay: Inhibition of type 3 secretion system protein secretion in Yersinia pseudotuberculosis at 30 ug/ml incubated for 2 hrs by SDS-PAGE and densitometric analysis
Pseudomonas aeruginosa [16] = assay: Antibacterial activity against Pseudomonas aeruginosa ATCC 25916 by broth microdilution method; type: functional
Escherichia coli [17] = assay: Antibacterial activity against Escherichia coli ATCC 25922 by broth microdilution method; type: functional
Staphylococcus aureus [18] = assay: Antibacterial activity against Staphylococcus aureus ATCC 25925 by broth microdilution method; type: functional
Bacillus subtilis [19] = assay: Antibacterial activity against Bacillus subtilis ATCC 63501 by broth microdilution method; type: functional
Staphylococcus aureus [20] = assay: Antibacterial activity against drug-resistant Staphylococcus aureus by broth microdilution method; type: functional
Escherichia coli [21] = assay: Antibacterial activity against drug-resistant Escherichia coli by broth microdilution method; type: functional
Staphylococcus aureus [22] = assay: Antibacterial activity against methicillin-resistant Staphylococcus aureus; type: functional
Escherichia coli [23] = assay: Antibacterial activity against Escherichia coli; type: functional

CC[C@H](C)[C@H]1NC(=O)[C@@H](NC(=O)[C@H](C)[C@H](O)C(C)C)[C@@H](C)OC(=O)[C@H]2NC(=O)[C@@H](C(C)C)NC(=O)[C@@H](Cc3ccccc3)N(C)C(=O)[C@@H](NC1=O)c1ccc(cc1)O[C@H](C)[C@@](O)(CCl)/C=C\C(=O)NCC(=O)O2
pIC50 [1]: 5.40 to 6.70
pIC50 [2]: 5.70 to 6.70

C=C(NC(=O)c1csc(-c2nc3c(cc2O)-c2nc(cs2)C(=O)N[C@@H]([C@@H](C)O)C(=O)N/C(=C/C)c2nc(cs2)C(=O)N[C@H]2C[C@H](O)C(=O)OCc4cccc5[nH]c(c(C)c45)C(=O)SC[C@H](NC(=O)c4csc2n4)c2nc-3cs2)n1)C(N)=O
MIC (Clostridioides difficile): 0.01 µg/mL (≈ 0.00818 µM)
MIC (Enterococcus [3]): 0.12 µg/mL (≈ 0.0982 µM)
MIC (Moraxella catarrhalis): 0.5 µg/mL (≈ 0.409 µM)
MIC (Enterococcus [4]): 0.12 µg/mL (≈ 0.0982 µM)
MIC (Pseudomonas aeruginosa [5]): > 4 µg/mL
MIC (Escherichia coli [6]): > 4 µg/mL
MIC (Staphylococcus aureus [7]): 0.03 to 0.25 µg/mL (≈ 0.0245 to 0.205 µM)

CCn1cc(C(=O)O)c(=O)c2ccc(C)nc21 [NALIDIXIC ACID]
MIC [8]: 1250 to 1500 µg/mL (≈ 5380 to 6460 µM)
MIC (Pseudomonas aeruginosa [9]): 1250 to 1500 µg/mL (≈ 5380 to 6460 µM)

COc1ccc2oc3c4c(c(O)c(O)c3c(=O)c2c1O)CCc1cc2c(c(O)c1-4)C(=O)N1[C@@](C)(CO)C(=O)O[C@@]1(C)C2
MIC [10]: ≤ 1 µg/mL
MIC (Staphylococcus aureus [11]): ≤ 1 µg/mL
MIC (Bacillus subtilis [12]): ≤ 1 µg/mL
MIC (Staphylococcus aureus [13]): ≤ 1 µg/mL

Cc1c2oc3c(C)ccc(C(=O)N[C@@H]4C(=O)N[C@H](C(C)C)C(=O)N5CCC[C@H]5C(=O)N(C)CC(=O)N(C)[C@@H](C(C)C)C(=O)O[C@@H]4C)c3nc-2c(C(=O)N[C@@H]2C(=O)N[C@H](C(C)C)C(=O)N3CC(O)C[C@H]3C(=O)N(C)CC(=O)N(C)[C@@H](C(C)C)C(=O)O[C@@H]2C)c(N)c1=O (stereo not given in full)
MIC [14]: 1 to 8 µg/mL (≈ 0.787 to 6.29 µM)

C/C=C(\C)[C@H](C)[C@H](C)/C=C(C)/C=C/C/C(C)=C/Cc1cc(O)cc(OC)n1
inhibition [15]: 45%

CN(C)[C@@H]1C(O)=C(C(N)=O)C(=O)[C@@]2(O)C(O)=C3C(=O)c4c(O)cccc4[C@@](C)(O)[C@H]3C[C@@H]12 [TETRACYCLINE]
MIC [8]: 40 to 80 µg/mL (≈ 90 to 180 µM)
MIC (Pseudomonas aeruginosa [9]): 40 to 80 µg/mL (≈ 90 to 180 µM)

C[C@@H]1C/C=C2\SC[C@@H](NC(=O)c3coc(n3)C[C@@H](O)C[C@H](O)/C=C/C=C/CNC2=O)C(=O)O1
MIC (Pseudomonas aeruginosa [16]): 32 µg/mL (≈ 67 µM)
MIC (Escherichia coli [17]): 32 µg/mL (≈ 67 µM)
MIC (Staphylococcus aureus [18]): 8 to 16 µg/mL (≈ 16.8 to 33.5 µM)
MIC (Bacillus subtilis [19]): 8 to 16 µg/mL (≈ 16.8 to 33.5 µM)
MIC (Staphylococcus aureus [20]): 8 to 16 µg/mL (≈ 16.8 to 33.5 µM)
MIC (Escherichia coli [21]): 32 µg/mL (≈ 67 µM)

Cc1c2oc3c(C)ccc(C(=O)N[C@@H]4C(=O)N[C@H](C(C)C)C(=O)N5CCC[C@H]5C(=O)N(C)CC(=O)N(C)[C@@H](C(C)C)C(=O)O[C@@H]4C)c3nc-2c(C(=O)N[C@@H]2C(=O)N[C@H](C(C)C)C(=O)N3CCC[C@H]3C(=O)N(C)CC(=O)N(C)[C@@H](C(C)C)C(=O)O[C@@H]2C)c(N)c1=O [DACTINOMYCIN] (I: T[dV]P[Sar][NMeV] / II: T[dV]P[Sar][NMeV]; ester I:1-I:C, II:1-II:C; linker I:N-II:N via Actinocin(1to9))
MIC [14]: 1 to 8 µg/mL (≈ 0.797 to 6.37 µM)

C/C=C(\C)[C@H](O)[C@H](C)/C=C(C)/C=C/C/C(C)=C/Cc1nc(OC)c(OC)c(O)c1C
inhibition [15]: 65%

Cc1c2oc3c(C)ccc(C(=O)N[C@@H]4C(=O)N[C@H](C(C)C)C(=O)N5CCC[C@H]5C(=O)N(C)CC(=O)N(C)[C@@H](C(C)C)C(=O)O[C@@H]4C)c3nc-2c(C(=O)N[C@@H]2C(=O)N[C@H](C(C)C)C(=O)N3CC(=O)C[C@H]3C(=O)N(C)CC(=O)N(C)[C@@H](C(C)C)C(=O)O[C@@H]2C)c(N)c1=O (I: T[dV][Pro(4-oxo)][Sar][NMeV] / II: T[dV]P[Sar][NMeV]; ester I:1-I:C, II:1-II:C; linker I:N-II:N via Actinocin(1to9))
MIC [14]: 1 to 8 µg/mL (≈ 0.788 to 6.3 µM)

C/C(=C\C(=O)OCCCCCCCC(=O)Nc1c2sscc-2[nH]c1=O)C[C@@H]1OC[C@H](C[C@@H]2O[C@H]2[C@@H](C)[C@H](C)O)[C@@H](O)[C@H]1O
MIC (Staphylococcus aureus [22]): ≤ 0.03 µg/mL
MIC (Escherichia coli [23]): 0.5 µg/mL (≈ 0.78 µM)
